# Patent US11401271B2, “Fused heterocyclic compound, pyrazole-ring-containing fused heterocyclic compound, agricultural composition containing thereof, and method of using the composition” (SOUTH CHINA AGRICULTURAL UNIVERSITY, priority 2017, dated 2022)
# Structures can show the parent of a compound that is named as a salt. Where two headings read alike, the source gives them in different places.
# Columns and labels:
# Assay in all cases: whole plant or invertebrate
# Format in all cases: in vivo
# Plutella xylostella = conditions: for mortality at 500 ppm: Plutella xylostella, read-out: Plutella xylostella Mortality (%) 500 ppm
# In short: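 Cabbage leaf discs dipped 5 s in compound at 500 ppm (0.05% Tween-80 aqueous), air-dried, fed to about 35 2nd-instar larvae at 28° C., triplicate. Dead larvae counted after 24 h; mortality (%) corrected against Tween-80 control.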
# Aphis craccivora = conditions: for Aphis craccivora Mortality (%): immersion 5 seconds, counted after 24 hours; for mortality at 500 ppm: Aphis craccivora, read-out: Aphis craccivora Mortality (%) 500 ppm
# In short: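 Wingless adults feeding on bean sprouts were dipped with the sprouts for 5 s in 500 ppm compound in aqueous 0.05% Tween-80, air-dried, then held at 23° C. Dead aphids counted after 24 h, triplicate, with 0.05% Tween-80 as control. Mortality (%) = (control live − treated live)/control live × 100.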
# Spodoptera exigua = conditions: for mortality at 500 ppm: Spodoptera exigua, read-out: Spodoptera exigua Mortality (%) 500 ppm
# In short: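 Cabbage leaf discs dipped 5 s in 500 ppm compound (0.05% Tween-80 aqueous), air-dried, fed to about 35 2nd-instar larvae at 28° C, three replicates. Deaths counted at 24 h; mortality corrected against Tween-80 control.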
# Solenopsis invicta = conditions: for mortality at 100 ppm: Solenopsis invicta
# In short: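 Fire ants fed compound by water test-tube poison-feeding at 100 ppm in aqueous 0.05% Tween-80/5% honey (from 10 g/L DMSO stock), kept at 25 °C. Live and dead ants counted at 24 and 72 h; mortality (%) calculated relative to live ants in the untreated control.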
# [1] = 500 ppm, 2nd-instar larvae, leaf immersion feeding
# [2] = 100 ppm, 24 h, water test tube poison-feeding
# [3] = 100 ppm, 72 h, water test tube poison-feeding
# [4] = 24 h, read-out: Solenopsis invicta Mortality (%) 100 ppm 24 h, 100 ppm, 24 h, water test tube poison-feeding
# [5] = 72 h, read-out: Solenopsis invicta Mortality (%) 100 ppm 72 h, 100 ppm, 72 h, water test tube poison-feeding
# [6] = 500 ppm, wingless adults, impregnation method, 24 hours
# [7] = 500 ppm, 2nd-instar larvae, leaf immersion feeding, 24 hours
Structure (SMILES),Plutella xylostella Mortality (%) (Plutella xylostella; [1]),"Aphis craccivora Mortality (%) (Aphis craccivora; 500 ppm, wingless adults)",Spodoptera exigua Mortality (%) (Spodoptera exigua; [1]),Solenopsis invicta Mortality (%) 24 h (Solenopsis invicta; [2]) [%],Solenopsis invicta Mortality (%) 72 h (Solenopsis invicta; [3]) [%],other results
N#CCC1(C(=O)C(F)(F)F)Nc2c([S+]([O-])C(F)(F)F)c(C#N)nn2-c2cncc(Cl)c21 (centres unmarked) [b-30],90,100,85,25,94,–
CSc1nn2c(c1C#N)N(CCBr)C(F)(C(F)(F)F)c1ccccc1-2 (centres unmarked) [Compound A35],–,–,–,–,–,"mortality at 500 ppm (Plutella xylostella): 100%; mortality at 500 ppm (Aphis craccivora; 24 h): 100%; mortality at 500 ppm (Spodoptera exigua; 24 h): 100%; mortality at 100 ppm (Solenopsis invicta; 24 h, read-out: Solenopsis invicta Mortality (%) 100 ppm 24 h): 31%; mortality at 100 ppm (Solenopsis invicta; 72 h, read-out: Solenopsis invicta Mortality (%) 100 ppm 72 h): 99%"
CN1c2c(Br)c(C#N)nn2-c2ccccc2C1(C)C [Compound A3],–,–,–,–,–,mortality at 500 ppm (Plutella xylostella): 90%; mortality at 500 ppm (Aphis craccivora; 24 h): 100%; mortality at 500 ppm (Spodoptera exigua; 24 h): 100%; mortality at 100 ppm (Solenopsis invicta; [4]): 25%; mortality at 100 ppm (Solenopsis invicta; [5]): 100%
N#Cc1nn2c(c1[S+]([O-])C(F)(F)F)NC(C(=O)C(F)(F)F)c1cc(C(F)(F)F)cc(Cl)c1-2 (stereo not drawn) [d-81],99,100,90,35,100,–
COC(=O)CC1(C(F)(F)F)Nc2c([S+]([O-])C(F)(F)F)c(C#N)nn2-c2ncc(C(F)(F)F)cc21 (centres unmarked) [a-62],–,–,–,–,–,Plutella xylostella Mortality (%) 500 ppm (Plutella xylostella; [1]): 100%; Aphis craccivora Mortality (%) 500 ppm (Aphis craccivora; [6]): 100%; Spodoptera exigua Mortality (%) 500 ppm (Spodoptera exigua; [7]): 100%; Solenopsis invicta Mortality (%) 100 ppm 24 h (Solenopsis invicta; [2]): 21%; Solenopsis invicta Mortality (%) 100 ppm 72 h (Solenopsis invicta; [3]): 99%
[O-][S+](c1c(C(F)(F)F)nn2c1NC(C(F)(F)F)c1cc(C(F)(F)F)cc(Cl)c1-2)C(F)(F)F (stereo not drawn) [d-107],100,100,100,24,100,–
N#Cc1nn2c(c1[S+]([O-])C(F)(F)F)NC(CC(=O)C(F)(F)F)c1c(Cl)cncc1-2 (centres unmarked) [b-70],100,100,95,44,100,–
COC(=O)CC1Nc2c([S+]([O-])C(F)(F)F)c(C(F)(F)F)nn2-c2ncc(C(F)(F)F)cc21 (centres unmarked) [a-88],–,–,–,–,–,Plutella xylostella Mortality (%) 500 ppm (Plutella xylostella; [1]): 100%; Aphis craccivora Mortality (%) 500 ppm (Aphis craccivora; [6]): 100%; Spodoptera exigua Mortality (%) 500 ppm (Spodoptera exigua; [7]): 100%; Solenopsis invicta Mortality (%) 100 ppm 24 h (Solenopsis invicta; [2]): 34%; Solenopsis invicta Mortality (%) 100 ppm 72 h (Solenopsis invicta; [3]): 100%
"COC(=O)C1Nc2c([S+]([O-])C(F)(F)F)c(C(F)(F)F)nn2-c2cncc(Cl)c21 (stereo not drawn) [b-87, 6-chloro-2-trifluoromethyl-3-trifluoromethylsulfinyl-4,5-dihydropyrazole[1,5-α]quinazoline[4,3-e]pyridine-5-methyl formate]",95,100,95,14,100,–
N#Cc1nn2c(c1[S+]([O-])C(F)(F)F)NC(CCCl)(C(=O)C(F)(F)F)c1c(Cl)cc(C(F)(F)F)cc1-2 (centres unmarked) [c-42],86,100,80,20,97,–
CSc1nn2c(c1C#N)N(C(=O)Oc1ccccc1)C(F)(C(F)(F)F)c1ccccc1-2 (centres unmarked) [Compound A31],–,–,–,–,–,"mortality at 500 ppm (Plutella xylostella; [1]): 100%; mortality at 500 ppm (Aphis craccivora; [6]): 100%; mortality at 500 ppm (Spodoptera exigua; [7]): 100%; mortality at 100 ppm (Solenopsis invicta; 100 ppm, 24 h, water test tube poison-feeding, read-out: Solenopsis invicta Mortality (%) 100 ppm 24 h): 20%; mortality at 100 ppm (Solenopsis invicta; 100 ppm, 72 h, water test tube poison-feeding, read-out: Solenopsis invicta Mortality (%) 100 ppm 72 h): 100%"
CCNc1cc2n(n1)-c1cnccc1C(F)(CC(F)(F)F)N2 (centres unmarked) [Compound A37],–,–,–,–,–,mortality at 500 ppm (Plutella xylostella): 100%; mortality at 500 ppm (Aphis craccivora; 24 h): 100%; mortality at 500 ppm (Spodoptera exigua; 24 h): 100%; mortality at 100 ppm (Solenopsis invicta; [4]): 20%; mortality at 100 ppm (Solenopsis invicta; [5]): 100%
N#Cc1nn2c(c1[S+]([O-])C(F)(F)F)NC(Cc1ccccc1)(C(=O)C(F)(F)F)c1c(Cl)cncc1-2 (centres unmarked) [b-27],91,100,89,19,100,–
